# In patent US12091411B2, “IRAK degraders and uses thereof” (Kymera Therapeutics, Inc., priority 2022, dated 2024):
# Read-outs that look alike come from different tables or passages of the source.
# Target: T1, IRAK4 (Homo sapiens, UniProt Q9NWZ3)
# T1 construct: Degradation of IRAK4 in OCI-LY10 was quantitatively measured using Meso Scale Discovery technology; endogenous in cells; host or cells: OCI-LY10
# T1 sequence (Q9NWZ3 1-460): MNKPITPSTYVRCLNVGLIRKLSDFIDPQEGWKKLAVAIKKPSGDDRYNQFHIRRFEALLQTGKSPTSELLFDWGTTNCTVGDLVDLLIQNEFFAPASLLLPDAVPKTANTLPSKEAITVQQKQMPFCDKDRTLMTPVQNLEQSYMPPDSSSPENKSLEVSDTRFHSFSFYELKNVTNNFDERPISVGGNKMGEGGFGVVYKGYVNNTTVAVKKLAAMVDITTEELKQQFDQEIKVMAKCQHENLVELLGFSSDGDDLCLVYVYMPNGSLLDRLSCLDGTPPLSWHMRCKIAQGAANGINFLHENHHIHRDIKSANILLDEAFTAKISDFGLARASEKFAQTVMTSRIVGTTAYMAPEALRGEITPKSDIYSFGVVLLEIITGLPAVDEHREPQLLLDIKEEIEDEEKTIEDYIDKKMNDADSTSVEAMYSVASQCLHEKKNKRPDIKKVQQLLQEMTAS
# Assay: IRAK4 MSD Degradation in OCI-LY10
# Format: cell-based
# Details: OCI-LY10 cells, MSD
# Outline: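 OCI-LY10 cells exposed to 8-point 1:3 compound series (top 1 to 10 μM) for 4 to 24 h at 37 °C, 5% CO2. Lysate IRAK4 quantified by MSD sandwich immunoassay. DC50 from three-parameter logistic fit, binned A (<0.01 μM) to D (>0.2 μM or not tested).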
# [1] = 4 hrs incubation, read-out: IRAK4 degradation in OCI-LY10 at 4 hrs: DC50
# [2] = 24 hrs incubation, read-out: IRAK4 degradation in OCI-LY10 at 24 hrs: DC50
SMILES,DC50 [1],DC50 [2]
COc1cncc(C(=O)Nc2cc3cn([C@H]4CC[C@H](CN5CCC6(CC5)CCN(c5cccc7c5n(C)c(=O)n7C5CCC(=O)NC5=O)CC6)CC4)nc3cc2OC)c1 (stereo partly drawn) [I-86],> 200 nM,> 200 nM
COc1cc2nn([C@H]3CC[C@H](CN4CCC5(CC4)CCN(c4cccc6c4n(C)c(=O)n6C4CCC(=O)NC4=O)CC5)CC3)cc2cc1NC(=O)c1cncc(C)c1 (stereo partly drawn) [I-89],> 200 nM,> 200 nM
COc1cc2nn([C@H]3CC[C@H](CN4CCC5(CC4)CCN(c4cccc6c(N7CCC(=O)NC7=O)cncc46)CC5)CC3)cc2cc1NC(=O)c1cncc(C#N)c1 [I-90],> 200 nM,> 200 nM
COc1cc2nn([C@H]3CC[C@H](CN4CCC5(CC4)CCN(c4cccc(C6CCC(=O)NC6=O)c4)CC5)CC3)cc2cc1NC(=O)c1cncc(C#N)c1 (stereo partly drawn) [I-91],> 200 nM,100 to 200 nM
COc1cc2nn([C@H]3CC[C@H](CN4CCC5(CC4)CCN(c4cccc6c4n(C)c(=O)n6C4CCC(=O)NC4=O)CC5)CC3)cc2cc1NC(=O)c1cncc(C(F)(F)F)c1 (stereo partly drawn) [I-92],> 200 nM,> 200 nM
COc1cc2nc([C@H]3CC[C@H](CN4CCC5(CC4)CCN(c4cccc6c4n(C)c(=O)n6C4CCC(=O)NC4=O)CC5)CC3)sc2cc1NC(=O)c1cncc(C#N)c1 (stereo partly drawn) [I-94],> 200 nM,> 200 nM
COc1cc2nn([C@H]3CC[C@H](CN4CCC5(CC4)CCN(c4c(F)ccc6c4n(C)c(=O)n6C4CCC(=O)NC4=O)CC5)CC3)cc2cc1NC(=O)c1cncc(C#N)c1 (stereo partly drawn) [I-95],> 200 nM,> 200 nM
COc1cc2nn([C@H]3CC[C@H](CN4CCC5(CC4)CCN(c4ccc(N6CCC(=O)NC6=O)cc4)CC5)CC3)cc2cc1NC(=O)c1cncc(C#N)c1 [I-96],> 200 nM,> 200 nM
Cc1ccc(-c2nn([C@H]3CC[C@H](CN4CCN(CC#Cc5cccc6c5n(C)c(=O)n6C5CCC(=O)NC5=O)CC4)CC3)cc2NC(=O)c2cnn3cccnc23)nc1 (stereo partly drawn) [I-113],> 200 nM,< 10 nM
Cc1ccc(-c2nn([C@H]3CC[C@H](CN4CCN(CC#Cc5cccc6c5n(C)c(=O)n6C5CCC(=O)NC5=O)CC4)CC3)cc2NC(=O)c2cnn3cccnc23)c(F)c1 (stereo partly drawn) [I-116],> 200 nM,10 to 100 nM
Cc1ccc(-c2nn([C@H]3CC[C@H](CN4CCN(CC#Cc5cccc6c5n(C)c(=O)n6C5CCC(=O)NC5=O)CC4)CC3)cc2NC(=O)c2cnn3cccnc23)cc1 (stereo partly drawn) [I-118],> 200 nM,10 to 100 nM
C[C@@H]1CN(CCCc2cccc3c2n(C)c(=O)n3C2CCC(=O)NC2=O)CCN1C[C@H]1CC[C@H](n2cc(NC(=O)c3cnn4ccc(N5C[C@H]6C[C@@H]5CO6)nc34)c(C(F)F)n2)CC1 (stereo partly drawn) [I-119],> 200 nM,> 200 nM
C[C@H]1CN(CCCc2cccc3c2n(C)c(=O)n3C2CCC(=O)NC2=O)CCN1C[C@H]1CC[C@H](n2cc(NC(=O)c3cnn4ccc(N5C[C@H]6C[C@@H]5CO6)nc34)c(C(F)F)n2)CC1 (stereo partly drawn) [I-120],> 200 nM,> 200 nM
Cc1ccc(-c2nn([C@H]3CC[C@H](CN4CCN(CC#Cc5cccc6c5n(C)c(=O)n6C5CCC(=O)NC5=O)CC4)CC3)cc2NC(=O)c2cnn3cccnc23)nc1 (stereo partly drawn) [I-122],> 200 nM,10 to 100 nM
O=C1CCN(c2cccc(C#CCN3CCN(C[C@H]4CC[C@H](n5cc(NC(=O)c6cnn7ccc(N8C[C@H]9C[C@@H]8CO9)nc67)c(C(F)F)n5)CC4)CC3)c2)C(=O)N1 [I-123],> 200 nM,> 200 nM
O=C1CCN(c2ccc(C#CCN3CCN(C[C@H]4CC[C@@H](n5cc(NC(=O)c6cnn7ccc(N8C[C@@H]9C[C@H]8CO9)nc67)c(C(F)F)n5)CC4)CC3)cc2)C(=O)N1 [I-124],> 200 nM,> 200 nM
O=C1CCC(c2cccc(C#CCN3CCN(C[C@H]4CC[C@@H](n5cc(NC(=O)c6cnn7ccc(N8C[C@@H]9C[C@H]8CO9)nc67)c(C(F)F)n5)CC4)CC3)c2)C(=O)N1 (stereo partly drawn) [I-125],> 200 nM,> 200 nM
O=C1CCC(c2ccc(C#CCN3CCN(C[C@H]4CC[C@@H](n5cc(NC(=O)c6cnn7ccc(N8C[C@@H]9C[C@H]8CO9)nc67)c(C(F)F)n5)CC4)CC3)cc2)C(=O)N1 (stereo partly drawn) [I-126],> 200 nM,> 200 nM

# Second part, the molecule after the results:
DC50 [1],DC50 [2],SMILES
< 10 nM,< 10 nM,COc1cc2nn([C@H]3CC[C@H](CN4CCC5(CC4)CCN(c4c(OC)ccc6c4n(C)c(=O)n6C4CCC(=O)NC4=O)CC5)CC3)cc2cc1NC(=O)c1cncc(C#N)c1 (stereo partly drawn) [I-87]
10 to 100 nM,> 200 nM,COc1cc2nn([C@H]3CC[C@H](CN4CCC5(CC4)CCN(c4ccc(C6CCC(=O)NC6=O)cc4)CC5)CC3)cc2cc1NC(=O)c1cncc(C#N)c1 (stereo partly drawn) [I-88]
10 to 100 nM,10 to 100 nM,COc1cc2nn([C@H]3CC[C@H](CN4CCC5(CC4)CCN(c4cccc6c(N7CCC(=O)NC7=O)cccc46)CC5)CC3)cc2cc1NC(=O)c1cncc(C#N)c1 [I-93]
< 10 nM,> 200 nM,Cn1c(=O)n(C2CCC(=O)NC2=O)c2cccc(N3CCC4(CCN(C[C@H]5CC[C@H](c6nc7cc(C(C)(C)O)c(NC(=O)c8cncc(C#N)c8)cc7s6)CC5)CC4)CC3)c21 (stereo partly drawn) [I-97]
< 10 nM,> 200 nM,Cn1c(=O)n(C2CCC(=O)NC2=O)c2cccc(C#CCN3CCN(C[C@H]4CC[C@H](n5cc(NC(=O)c6cnn7ccc(N8CCOCC8)nc67)c(C(F)F)n5)CC4)CC3)c21 (stereo partly drawn) [I-98]
10 to 100 nM,> 200 nM,COc1ccn2ncc(C(=O)Nc3cn([C@H]4CC[C@H](CN5CCN(CC#Cc6cccc7c6n(C)c(=O)n7C6CCC(=O)NC6=O)CC5)CC4)nc3C(F)F)c2n1 (stereo partly drawn) [I-99]
10 to 100 nM,> 200 nM,Cn1c(=O)n(C2CCC(=O)NC2=O)c2cccc(C#CCN3CCN(C[C@H]4CC[C@H](n5cc(NC(=O)c6cnn7ccc(N8CCCCC8)nc67)c(C(F)F)n5)CC4)CC3)c21 (stereo partly drawn) [I-100]
< 10 nM,> 200 nM,CN(C)c1ccn2ncc(C(=O)Nc3cn([C@H]4CC[C@H](CN5CCN(CC#Cc6cccc7c6n(C)c(=O)n7C6CCC(=O)NC6=O)CC5)CC4)nc3C(F)F)c2n1 (stereo partly drawn) [I-101]
10 to 100 nM,> 200 nM,Cc1ccn2ncc(C(=O)Nc3cn([C@H]4CC[C@H](CN5CCN(CC#Cc6cccc7c6n(C)c(=O)n7C6CCC(=O)NC6=O)CC5)CC4)nc3C(F)F)c2n1 (stereo partly drawn) [I-102]
< 10 nM,> 200 nM,Cn1c(=O)n(C2CCC(=O)NC2=O)c2cccc(C#CCN3CCN(C[C@H]4CC[C@H](n5cc(NC(=O)c6cnn7ccc(N8CCCC8)nc67)c(C(F)F)n5)CC4)CC3)c21 (stereo partly drawn) [I-103]
10 to 100 nM,> 200 nM,CC(C)c1ccn2ncc(C(=O)Nc3cn([C@H]4CC[C@H](CN5CCN(CC#Cc6cccc7c6n(C)c(=O)n7C6CCC(=O)NC6=O)CC5)CC4)nc3C(F)F)c2n1 (stereo partly drawn) [I-104]
> 200 nM,> 200 nM,Cn1c(=O)n(C2CCC(=O)NC2=O)c2cccc(C#CCN3CCN(C[C@H]4CC[C@H](n5cc(NC(=O)c6cnn7ccc(C8C[C@H]9C[C@@H]8CO9)nc67)c(C(F)F)n5)CC4)CC3)c21 (stereo partly drawn) [I-105]
< 10 nM,> 200 nM,Cn1c(=O)n(C2CCC(=O)NC2=O)c2cccc(C#CCN3CCN(C[C@H]4CC[C@H](n5cc(NC(=O)c6cnn7ccc(N8CCC8)nc67)c(C(F)F)n5)CC4)CC3)c21 (stereo partly drawn) [I-106]
> 200 nM,> 200 nM,Cn1c(=O)n(C2CCC(=O)NC2=O)c2cccc(C#CCN3CCN(CC4CCC(n5cc(NC(=O)c6cnn7ccc(N8CC9CC8CO9)nc67)c(C(F)F)n5)CC4)CC3)c21 (stereo not drawn) [I-108]
10 to 100 nM,> 200 nM,Cn1c(=O)n(C2CCC(=O)NC2=O)c2cccc(C#CCN3CCN(C[C@H]4CC[C@H](n5cc(NC(=O)c6cnn7ccc(C8CCC8)nc67)c(C(F)F)n5)CC4)CC3)c21 (stereo partly drawn) [I-109]
10 to 100 nM,10 to 100 nM,CCc1ccn2ncc(C(=O)Nc3cn([C@H]4CC[C@H](CN5CCN(CC#Cc6cccc7c6n(C)c(=O)n7C6CCC(=O)NC6=O)CC5)CC4)nc3C(F)F)c2n1 (stereo partly drawn) [I-110]
< 10 nM,> 200 nM,Cn1c(=O)n(C2CCC(=O)NC2=O)c2cccc(C#CCN3CCN(C[C@H]4CC[C@H](n5cc(NC(=O)c6cnn7ccc(N8CCOC(C)(C)C8)nc67)c(C(F)F)n5)CC4)CC3)c21 (stereo partly drawn) [I-111]
100 to 200 nM,> 200 nM,COc1nn([C@H]2CC[C@H](CN3CCN(CC#Cc4cccc5c4n(C)c(=O)n5C4CCC(=O)NC4=O)CC3)CC2)cc1NC(=O)c1cnn2ccc(N3C[C@H]4C[C@@H]3CO4)nc12 (stereo partly drawn) [I-121]
100 to 200 nM,> 200 nM,Cn1c(=O)n(C2CCC(=O)NC2=O)c2cccc(C#CCO[C@@H]3CCCN(C[C@H]4CC[C@H](n5cc(NC(=O)c6cnn7ccc(N8C[C@H]9C[C@@H]8CO9)nc67)c(C(F)F)n5)CC4)C3)c21 (stereo partly drawn) [I-127]
10 to 100 nM,> 200 nM,Cn1c(=O)n(C2CCC(=O)NC2=O)c2cccc(C#CCO[C@H]3CCCN(C[C@H]4CC[C@H](n5cc(NC(=O)c6cnn7ccc(N8C[C@H]9C[C@@H]8CO9)nc67)c(C(F)F)n5)CC4)C3)c21 (stereo partly drawn) [I-128]
< 10 nM,> 200 nM,CN1C(=O)C(C2CCC(=O)NC2=O)c2cccc(N3CCN(CC4CCC(n5cc6cc(NC(=O)c7cccc(C(F)(F)F)n7)c(S(C)(=N)=O)cc6n5)CC4)CC3)c21 (stereo not drawn) [I-129]
